In PubChem BioAssay (NCI):
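Each compound was tested at five concentrations against cells in 96-well plates for 48 hours. TGI denotes the concentration required for complete inhibition of growth.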

What was measured:
Test in all cases: NCI-60 cell line screen, 48 h
KM12 colon = system: KM12 colon
OVCAR-8 ovarian = system: OVCAR-8 ovarian
SK-MEL-2 melanoma = system: SK-MEL-2 melanoma
SR leukemia = system: SR leukemia
A549 NSCLC = system: A549 NSCLC
HCC-2998 colon = system: HCC-2998 colon
CAKI-1 renal = system: CAKI-1 renal
MDA-N = system: MDA-N
SK-MEL-28 melanoma = system: SK-MEL-28 melanoma
SF-295 CNS = system: SF-295 CNS
786-0 renal = system: 786-0 renal
NCI-H23 lung = system: NCI-H23 lung
MALME-3M melanoma = system: MALME-3M melanoma
HOP-62 NSCLC = system: HOP-62 NSCLC
UACC-257 melanoma = system: UACC-257 melanoma
CCRF-CEM leukemia = system: CCRF-CEM leukemia
BT-549 breast = system: BT-549 breast
IGROV1 ovarian = system: IGROV1 ovarian
HCT-15 colon = system: HCT-15 colon
OVCAR-4 ovarian = system: OVCAR-4 ovarian
COLO 205 colon = system: COLO 205 colon
HT29 colon = system: HT29 colon
T-47D breast = system: T-47D breast
NCI-H460 lung = system: NCI-H460 lung
NCI-H522 lung = system: NCI-H522 lung
HCT-116 colon = system: HCT-116 colon
MOLT-4 leukemia = system: MOLT-4 leukemia
SK-OV-3 ovarian = system: SK-OV-3 ovarian
MDA-MB-231 breast = system: MDA-MB-231 breast
HL-60(TB) leukemia = system: HL-60(TB) leukemia
ACHN renal = system: ACHN renal
SW-620 colon = system: SW-620 colon
NCI-H226 lung = system: NCI-H226 lung
HOP-92 NSCLC = system: HOP-92 NSCLC
EKVX NSCLC = system: EKVX NSCLC
OVCAR-5 ovarian = system: OVCAR-5 ovarian
NCI/ADR-RES ovarian = system: NCI/ADR-RES ovarian
SK-MEL-5 melanoma = system: SK-MEL-5 melanoma
SF-268 CNS = system: SF-268 CNS
RXF 393 renal = system: RXF 393 renal
LOX IMVI melanoma = system: LOX IMVI melanoma
UO-31 renal = system: UO-31 renal
MDA-MB-435 = system: MDA-MB-435
SF-539 CNS = system: SF-539 CNS
U251 CNS = system: U251 CNS
HS 578T breast = system: HS 578T breast
SN12C renal = system: SN12C renal
TK-10 renal = system: TK-10 renal
OVCAR-3 ovarian = system: OVCAR-3 ovarian
MCF7 breast = system: MCF7 breast
RPMI-8226 leukemia = system: RPMI-8226 leukemia
PC-3 prostate = system: PC-3 prostate
DU-145 prostate = system: DU-145 prostate
K-562 leukemia = system: K-562 leukemia
SNB-19 CNS = system: SNB-19 CNS
SNB-75 CNS = system: SNB-75 CNS
A498 renal = system: A498 renal
UACC-62 melanoma = system: UACC-62 melanoma
M14 melanoma = system: M14 melanoma

Measured: TGI

CC(O)C1CC1(CO)CNc1cc(Cl)nc(N)n1 (stereo not given)
> 100 µM: KM12 colon | OVCAR-8 ovarian | SK-MEL-2 melanoma | SR leukemia | A549 NSCLC | HCC-2998 colon | CAKI-1 renal | MDA-N | SK-MEL-28 melanoma | SF-295 CNS | 786-0 renal | NCI-H23 lung | MALME-3M melanoma | HOP-62 NSCLC | UACC-257 melanoma | CCRF-CEM leukemia | BT-549 breast | IGROV1 ovarian | HCT-15 colon | OVCAR-4 ovarian | COLO 205 colon | HT29 colon | T-47D breast | NCI-H460 lung | NCI-H522 lung | HCT-116 colon | MOLT-4 leukemia | SK-OV-3 ovarian | MDA-MB-231 breast | HL-60(TB) leukemia | ACHN renal | SW-620 colon | NCI-H226 lung | HOP-92 NSCLC | EKVX NSCLC | OVCAR-5 ovarian | NCI/ADR-RES ovarian | SK-MEL-5 melanoma | SF-268 CNS | RXF 393 renal | LOX IMVI melanoma | UO-31 renal | MDA-MB-435 | SF-539 CNS | U251 CNS | HS 578T breast | SN12C renal | TK-10 renal | OVCAR-3 ovarian | MCF7 breast | RPMI-8226 leukemia | PC-3 prostate | DU-145 prostate | K-562 leukemia | SNB-19 CNS | SNB-75 CNS

COc1ccc(C#CC(=O)O)c(OC)c1
> 100 µM: KM12 colon | OVCAR-8 ovarian | SK-MEL-2 melanoma | A498 renal | SR leukemia | A549 NSCLC | HCC-2998 colon | CAKI-1 renal | MDA-N | SK-MEL-28 melanoma | SF-295 CNS | 786-0 renal | NCI-H23 lung | MALME-3M melanoma | HOP-62 NSCLC | UACC-62 melanoma | UACC-257 melanoma | CCRF-CEM leukemia | BT-549 breast | HCT-15 colon | OVCAR-4 ovarian | COLO 205 colon | HT29 colon | T-47D breast | NCI-H460 lung | HCT-116 colon | MOLT-4 leukemia | SK-OV-3 ovarian | MDA-MB-231 breast | HL-60(TB) leukemia | ACHN renal | SW-620 colon | NCI-H226 lung | HOP-92 NSCLC | EKVX NSCLC | OVCAR-5 ovarian | NCI/ADR-RES ovarian | SK-MEL-5 melanoma | LOX IMVI melanoma | UO-31 renal | MDA-MB-435 | SF-539 CNS | U251 CNS | HS 578T breast | SN12C renal | TK-10 renal | OVCAR-3 ovarian | MCF7 breast | RPMI-8226 leukemia | M14 melanoma | PC-3 prostate | DU-145 prostate | K-562 leukemia | SNB-19 CNS
